Data as given in article PMC12703733, “Probing Guanidino Pendant or Bridged Groups in Cyclic Antimicrobial Peptides Derived from Temporin L: A Strategy to Improve Efficacy against Gram-Negative Bacteria” (Journal of Medicinal Chemistry, 2025).
≈ marks a conversion by molar mass, not a printed value. Like-named read-outs stand apart in the source and are kept apart here. Bridge positions count the residues as written; N and C are the ends. Square brackets hold non-standard residues; d marks the D form. Peptide text beside a SMILES is read from it. Phe(4-guanidino) = N=C(N)Nc1ccc(C[C@H](N)C(=O)O)cc1

Assays:
[1] = tested on: B. megaterium BM11; test: microbe, parasite or virus in culture; assay type: cell-based; details: BM11
Summary of the method: (§1)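 MICs were taken as three identical readings from four independent experiments, using mid-log cells at 2 × 10^6 cell/mL in Mueller Hinton medium incubated at 37 °C.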

[2] = tested on: E. coli D21; test: microbe, parasite or virus in culture; assay type: cell-based; details: D21
Summary of the method: as §1

[3] = tested on: P. aeruginosa ATCC 27853; test: microbe, parasite or virus in culture; assay type: cell-based; details: ATCC 27853
Summary of the method: as §1

[4] = tested on: E. faecalis ATCC 29212; test: microbe, parasite or virus in culture; assay type: cell-based; details: ATCC 29212
Summary of the method: as §1

[5] = tested on: S. agalactiae ATCC 27591; test: microbe, parasite or virus in culture; assay type: cell-based; details: ATCC 27591
Summary of the method: as §1

[6] = tested on: A. baumannii ATCC 19606; test: microbe, parasite or virus in culture; assay type: cell-based; details: ATCC 19606
Summary of the method: as §1

[7] = tested on: S. aureus ATCC 25923; test: microbe, parasite or virus in culture; assay type: cell-based; details: ATCC 25923
Summary of the method: as §1

[8] = tested on: S. epidermidis ATCC 12228; test: microbe, parasite or virus in culture; assay type: cell-based; details: ATCC 12228
Summary of the method: as §1

[9] = tested on: E. coli ATCC 25922; test: microbe, parasite or virus in culture; assay type: cell-based; details: ATCC 25922
Summary of the method: as §1

[10] = circular dichroism; details: water; pH ns; 25 °C; 150 uM
[11] = tested on: S. aureus ATCC 25923; assay type: cell-based
Procedure: The ability of peptides to alter the bacterial membrane permeability of planktonic cells of S. aureus ATCC 25923 and P. aeruginosa ATCC 27853 was determined by the Sytox Green assay. Approximately 1 × 10^6 cells in 100 μL of PBS were combined with 1 μM Sytox Green in the dark for 5 min. The fluorescence intensity was monitored using a microplate reader (Infinite M200, Tecan), with excitation and emission at λ = 485 and 535 nm, respectively. Peptides were added (time = 0) at three different concentrations (i.e., 3.12, 6.25, and 12.5 μM). Increase in the fluorescence intensity is due to the binding of the dye to intracellular nucleic acids. Controls consisted of cells that were not exposed to the peptides. The values correspond to one representative experiment out of three independent experiments.

[12] = assay type: cell-based, human; details: human
Summary of the method: (§2)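 Cells were plated at about 4 × 10^4/well in 2% FBS, then exposed to peptide at 100–3.12 μM in serum-free medium for 2 h or 24 h. Viability was measured by MTT reduction (0.5 mg/mL, 4 h, absorbance 570 nm) relative to untreated cells, as the mean ± SEM of three experiments.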

[13] = tested on: human keratinocytes (HaCaT cells); assay type: cell-based; details: human, 24 h
Summary of the method: as §2

[14] = assay type: cell-based; details: Cell viability (%)
Procedure: For the evaluation of peptides’ cytotoxicity, the human immortalized keratinocytes (HaCaT cells), purchased from AddexBio (San Diego, CA, USA), and BEAS-2B were used. HaCaT cells were cultured in Dulbecco’s modified Eagle’s medium supplemented with 4 mM glutamine (DMEM), 10% heat-inactivated fetal bovine serum (FBS), and 0.1 mg/mL of penicillin and streptomycin, at 37 °C and 5% CO2. BEAS-2B cells were cultured in RPMI, supplemented with 2 mM glutamine (DMEM), 10% heat-inactivated fetal bovine serum (FBS), 1 mM sodium pyruvate, and 0.1 mg/mL of penicillin and streptomycin, at 37 °C and 5% CO2. Cytotoxicity was tested in vitro using a colorimetric assay that relies on the intracellular reduction of the yellow 3-(4,5-dimethylthiazol-2-yl)-2,5-diphenyltetrazolium bromide salt (MTT) by mitochondrial dehydrogenases of metabolically active cells in formazan crystals (purple). About 4 × 10^4 HaCaT and BEAS-2B cells, suspended in DMEM supplemented with 2% FBS, were plated in triplicate wells of a 96-well microtiter plate. The plate was incubated overnight at 37 °C and 5% CO2. Then, the cells were treated with different concentrations of the peptide (from 100 to 3.12 μM) in a fresh serum-free medium for 2 h and for a longer time (24 h). Following peptide treatment, the medium was removed, and MTT (0.5 mg/mL) solution in Hank’s buffer (136 mM NaCl, 4.2 mM Na2HPO4, 4.4 mM KH2PO4, 5.4 mM KCl, 4.1 mM NaHCO3, pH 7.2, supplemented with 20 mM D-glucose) was added to each well of the plate, that was then incubated for 4 h at 37 °C and 5% CO2. The purple formazan crystals were dissolved using acidified 2-propanol and a microplate reader (Infinite M200; Tecan, Salzburg, Austria) was used to measure the absorbance of each well at 570 nm. The percentage of cell viability was calculated compared to the control, which consisted of cells without any peptide treatment (corresponding to 100% viability) and all data represent the mean of three independent experiments ± SEM.

[15] = in vitro; assay type: in vitro ADME; details: isolated enzyme chymotrypsin, pH 7.8
Procedure: Peptide stability was evaluated by modifying previously described procedures. , The assays were performed in human serum and in the presence of proteolytic enzymes such as trypsin and chymotrypsin. For human serum stability, 2 mM peptide stock solutions were prepared in water and mixed with human serum (from male AB plasma, USA origin, sterile-filtered, Merck/Sigma-Aldrich, USA) to obtain a final concentration of 200 μM [human plasma/stock solution (9:1, v/v)]. The mixtures were incubated at 37 ± 1 °C, and 50 μL aliquots were taken at predetermined time intervals (0, 1, 2, 4, 8, and 24 h). Protease activity was quenched by adding 100 μL of acetonitrile (MeCN). The resulting cloudy suspensions were cooled to 4 °C for 30 min and centrifugated at 12,000 rpm for 10 min to remove the serum proteins. Then, the supernatants were analyzed by analytical HPLC (Shimadzu Nexera Liquid Chromatograph LC-30AD) which was equipped with a Phenomenex Kinetex reversed-phase column (C18, 5 μm, 100 Å, 150 mm × 4.6 mm) with a flow rate of 1 mL/min using a gradient of MeCN (0.1% TFA) in water (0.1% TFA), from 10 to 70% over 15 min, and UV detection at 220 nm. For enzyme stability, each peptide peptide (200 μM) was incubated with trypsin (0.5 μM) in PBS 1× (pH 7.2) or with chymotrypsin (0.005 μM) in Tris–HCl (100 mM, pH 7.8). Samples (50 μL) were collected at 0, 1, 2, 4, and 24 h, quenched with 0.5% TFA in water, and analyzed by HPLC under chromatographic conditions as described above. All experiments were conducted in triplicate. The percentage of intact peptides at each time point was determined by integrating the corresponding HPLC peak areas.

**Q.** Which MIC [1] does the source give for `CC[C@H](C)[C@H](NC(=O)[C@H](CCCNC(=N)N)NC(=O)[C@H]1CCC(=O)NCCCC[C@H](NC(=O)[C@H](Cc2ccccc2)NC(=O)[C@H](Cc2c[nH]c3ccccc23)NC(=O)[C@@H]2CCCN2C(=O)[C@@H](NC(=O)[C@@H](N)Cc2ccc(NC(=N)N)cc2)C(C)C)C(=O)N[C@@H](CCCCN)C(=O)N[C@@H](Cc2ccccc2)C(=O)N[C@H](CC(C)C)C(=O)N1)C(=O)N[C@@H](CC(C)C)C(N)=O` [Peptide 6, (p-guanidino)FVPWF[KKFle]RIL] (H-[Phe(4-guanidino)]VPWFKKF[dL][dE]RIL-NH2; lactam 6-10) here?
**A.** 0.78 µM (≈ 1.37 µg/mL)

**Q.** What about the MIC [2] of the same compound?
**A.** 3.12 µM (≈ 5.49 µg/mL)

**Q.** And the MIC [3]?
**A.** 25 µM (≈ 44 µg/mL)

**Q.** What about the MIC [4] of the same compound?
**A.** 12.5 µM (≈ 22 µg/mL)

**Q.** What about the MIC [5] of the same compound?
**A.** 1.56 µM (≈ 2.75 µg/mL)

**Q.** And the MIC [6]?
**A.** 3.12 µM (≈ 5.49 µg/mL)

**Q.** And the MIC [7]?
**A.** 25 µM (≈ 44 µg/mL)

**Q.** What about the MIC [8] of the same compound?
**A.** 3.12 µM (≈ 5.49 µg/mL)

**Q.** What about the MIC [9] of the same compound?
**A.** 6.25 µM (≈ 11 µg/mL)

**Q.** And the helicity [10]?
**A.** 16%

**Q.** What about the “membrane permeabilization, Sytox Green fluorescence (in words)” value [11] of the same compound?
**A.** lower effect

**Q.** What about the CC50 at 24 h ([12]; CC50) of the same compound?
**A.** > 50 µM

**Q.** And the viability at 2 h, 3.12 µM ([12]; Cell viability (%))?
**A.** 102%

**Q.** What about the viability at 2 h, 6.25 µM ([12]; Cell viability (%)) of the same compound?
**A.** 101%

**Q.** What about the viability at 2 h, 12.5 µM ([12]; Cell viability (%)) of the same compound?
**A.** 101%

**Q.** What about the viability at 2 h, 25 µM ([12]; Cell viability (%)) of the same compound?
**A.** 101%

**Q.** And the viability at 2 h, 100 µM ([12]; Cell viability (%))?
**A.** 13%

**Q.** And the viability at 24 h, 3.12 µM ([12]; Cell viability (%))?
**A.** 100 ± 2%

**Q.** And the viability at 24 h, 6.25 µM ([12]; Cell viability (%))?
**A.** 93 ± 2%

**Q.** What about the viability at 24 h, 12.5 µM ([12]; Cell viability (%)) of the same compound?
**A.** 86 ± 4%

**Q.** And the viability at 24 h, 25 µM ([12]; Cell viability (%))?
**A.** 86 ± 2%

**Q.** What about the viability at 24 h, 50 µM ([12]; Cell viability (%)) of the same compound?
**A.** > 70%

**Q.** And the viability at 24 h, 100 µM ([12]; Cell viability (%))?
**A.** 2 ± 1%

**Q.** What about the CC50 [13] of the same compound?
**A.** 59.6 µM

**Q.** And the “Cell viability (%)” value ([13]; 50 µM)?
**A.** 81 ± 4%

**Q.** What about the viability at 2 h, 3.12 µM [14] of the same compound?
**A.** 111%

**Q.** And the viability at 2 h, 6.25 µM [14]?
**A.** 119%

**Q.** What about the viability at 2 h, 12.5 µM [14] of the same compound?
**A.** 114%

**Q.** What about the viability at 2 h, 25 µM [14] of the same compound?
**A.** 100%

**Q.** And the viability at 2 h, 50 µM [14]?
**A.** 30%

**Q.** What about the viability at 24 h, 3.12 µM [14] of the same compound?
**A.** 104%

**Q.** What about the viability at 24 h, 6.25 µM [14] of the same compound?
**A.** 111%

**Q.** And the viability at 24 h, 12.5 µM [14]?
**A.** 111%

**Q.** What about the viability at 24 h, 25 µM [14] of the same compound?
**A.** 107%

**Q.** And the viability at 24 h, 50 µM [14]?
**A.** 33%

**Q.** And the viability at 24 h, 100 µM [14]?
**A.** 4%

**Q.** What about the remaining at 4 h, 200 μM [15] of the same compound?
**A.** ~20%
